Reference: ChEMBL document CHEMBL1132391, “The sulfonimidamide as a novel transition state analog for aspartic acid and metallo proteases” (Bioorg Med Chem Lett, 1999)

Legend:
[1] = (§1) Tested for the inhibitory activity against Carboxypeptidase A (mixture of diastereomers)
[2] = target: T1, Human immunodeficiency virus type 1 protease (Human immunodeficiency virus 1, UniProt Q72874); test: Tested for the inhibitory activity against HIV protease
[3] = target: T2, Pepsin A (Sus scrofa, UniProt P00791); test: Tested for the inhibitory activity against pepsin
T2 sequence (P00791 whole entry): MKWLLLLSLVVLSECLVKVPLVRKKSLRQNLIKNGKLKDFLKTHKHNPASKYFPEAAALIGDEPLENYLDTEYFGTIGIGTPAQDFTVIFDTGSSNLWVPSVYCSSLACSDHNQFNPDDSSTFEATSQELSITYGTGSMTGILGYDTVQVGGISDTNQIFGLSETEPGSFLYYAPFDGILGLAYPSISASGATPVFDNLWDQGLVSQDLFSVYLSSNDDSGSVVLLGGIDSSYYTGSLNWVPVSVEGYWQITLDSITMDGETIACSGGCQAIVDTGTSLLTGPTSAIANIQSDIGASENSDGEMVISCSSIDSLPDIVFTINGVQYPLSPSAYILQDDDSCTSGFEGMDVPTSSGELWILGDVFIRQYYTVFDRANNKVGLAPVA

[4] = target: T2, Pepsin A; test: Tested for the inhibitory activity against pepsin (Second pure eluting diastereomer )
[5] = target: T1, Human immunodeficiency virus type 1 protease; test: Tested for the inhibitory activity against HIV protease (First pure eluting diastereomer)
[6] = target: T2, Pepsin A; test: Tested for the inhibitory activity against pepsin (First pure eluting diastereomer)
[7] = target: T1, Human immunodeficiency virus type 1 protease; test: Tested for the inhibitory activity against HIV protease (Second pure eluting diastereomer )
[8] = as §1; remark: listed apart in the source

IC50 [2] | IC50 [3] | Compound | also measured
– | – | N[S+]([O-])(CCc1ccccc1)=N[C@@H](Cc1ccccc1)C(=O)O (some centres not stated) | IC50 [1]: 20 µM
> 3000 µM | > 3000 µM | O=C(CCc1ccccc1)NCC(=O)OCc1ccccc1 | –
– | – | COC(=O)[C@H](Cc1ccccc1)N=[S+](N)([O-])CCc1ccccc1 (some centres not stated) | IC50 [4]: 700 µM; IC50 [5]: 1000 µM; IC50 [6]: 700 µM; IC50 [7]: > 5000 µM
> 5000 µM | 700 µM | N[S+]([O-])(CCc1ccccc1)=NCC(=O)OCc1ccccc1 (configuration not stated) | –
– | – | O=C(CCc1ccccc1)N[C@@H](Cc1ccccc1)C(=O)O | Km [8]: 2.1
> 3000 µM | > 3000 µM | COC(=O)[C@H](Cc1ccccc1)NC(=O)CCc1ccccc1 | –
